From patent US12037324B2, “Biarylmethyl heterocycles” (Université de Montréal, priority 2016, dated 2024)
Where a name gives a salt, the structure may show the parent alone. Read-outs that look alike come from different tables or passages of the source.

Experiments:
Type in all cases: cell-based
[1] = biological target: T1, AGTR1 (Homo sapiens, UniProt P30556); assay: DiscoveRx β-arrestin2 recruitment assay (enzyme complementation, Pathunter CHO-K1 AGTR1 β-arrestin cell line)
T1 construct: host or cells: Pathunter CHO-K1 AGTR1 β-arrestin cell line (CHO-K1)
T1 sequence (P30556 1-359): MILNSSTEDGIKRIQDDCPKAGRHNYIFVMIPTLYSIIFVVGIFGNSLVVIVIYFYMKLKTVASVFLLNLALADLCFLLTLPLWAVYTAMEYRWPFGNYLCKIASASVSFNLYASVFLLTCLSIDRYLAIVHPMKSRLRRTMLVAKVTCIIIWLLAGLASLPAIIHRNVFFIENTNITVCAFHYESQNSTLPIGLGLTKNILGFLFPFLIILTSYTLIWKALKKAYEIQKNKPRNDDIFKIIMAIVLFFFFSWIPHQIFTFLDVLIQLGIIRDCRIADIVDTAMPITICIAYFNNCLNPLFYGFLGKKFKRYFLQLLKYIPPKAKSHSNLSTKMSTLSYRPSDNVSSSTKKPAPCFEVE
How it was run: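 Chemiluminescent enzyme-complementation read-out of β-arrestin2 recruitment to AGTR1 in engineered CHO-K1 cells after 90 min compound exposure at 37° C. Values are 4-parameter logistic EC50s in agonist mode, IC50s in antagonist mode, with efficacy relative to the maximal All response.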

[2] = biological target: T2, hAT1R (Homo sapiens, UniProt P30556); assay: BRET β-arrestin2 biosensor assay, higher receptor expression (hAT1R 5 ng/well), HEK293 cells; settings: for EC50: High AT1R Expression
T2 sequence (P30556 1-359): T1 sequence (P30556 1-359)

[3] = biological target: T2, hAT1R; assay: BRET Gq biosensor assay, agonist response, HEK293 cells; settings: section of the 42nd table directly before the BRET P63 section
Description: BRET β-arrestin2 and Gq Activation Assays
In another aspect of the invention, association of the ATIR with signaling proteins is assessed using bioluminescence resonance energy transfer assays (Stephane Angers, Ali Salahpour et al. 2002). This technology measures the association between bioluminescent and fluorescent protein tags.
Several of the plasmid constructs used in BRET experiments were previously described. Briefly, the coding sequence of β-arrestin2 was fused to Renilla luciferase II to generate β-arrestin2-Rluc (Quoyer, Janz et al. 2013). The membrane targeting motif from K-Ras, CAAX motif (GKKKKKKSKTKCVIM), was fused to Renilla GFP to create rGFP-CAAX plasmid (Namkung Y et al., Nat Commun (2016) 7, 12178). The Renilla luciferase II was inserted in the Gaq protein to generate Gaq-Rluc (Breton, Sauvageau et al. 2010). The Gγ1 protein was tagged with GFP10 to obtain GFP-Gyl, using the same strategy described previously for GFP-Gy2 (Gales, Rebois et al. 2005). The Gaq binding domain of the p63RhoGEF protein (amino acids 295-502) was fused to Renilla luciferase II to create P63-Rluc. Finally, the hAT1R plasmid construct encoding the receptor was generated by optimizing the coding sequence of human angiotensin II receptor (GeneOptimizer from ThermoFisher), and adding an artificial cleavable signal peptide from bovine prolactin ([…]) in N-terminus of the receptor to increase cell surface expression.
Gq Biosensor Assay HEK293 cells were cultured in DMEM supplemented with Penicillin-Streptomycin and 10% fetal bovine serum. Two days before the BRET experiment, HEK293 cells were transfected with hAT1R expression plasmid (200 ng/well) as well as Gaq-Rluc (100 ng/well), Gβ1 (375 ng/well) and GFP-Gγ1 (625 ng/well), using linear polyethylenimine 25 kDa (PEI) at a PEI:DNA ratio of 3:1. Transfected cells were directly seeded in 96-well plates, at a density of 35 000 cells per well, and maintained in culture for the next 48 h.
BRET experiments were carried out subsequently using the following procedures: cells were washed once with Tyrode's buffer (137 mM NaCl, 1 mM CaCl2, 0.9 mM KCl, […], 3.6 mM NaH2PO4, 5.5 mM glucose, 12 mM NaHCO3, and 25 mM HEPES, pH 7.4) and 90 μl of Tyrode's buffer was added to each well. Cells were equilibrated in their new buffer at room temperature for at least 30 minutes. Following the equilibration period, the coelenterazine substrate was first added to the cells, 10 μl per well of a 10×solution (prolume purple coelenterazine at a final concentration of 2 μM), immediately followed by compound addition using the HP D300 digital dispenser from Tecan (10 singlicate concentrations). Cells were incubated for 5 min at room temperature and BRET readings were then collected using a Synergy Neo Multi-Mode reader from BioTek with BRET2 filters 410/515, to record agonist response. […] A second reading was collected 5 min after this second addition, using the Synergy Neo Multi-Mode reader from BioTek with BRET2 filters 410/515, to record antagonist response. The BRET signal was determined by calculating the ratio of the light emitted by GFP (515 nm) over the light emitted by the Rluc (410 nm). To analyze agonist response, BRET signal values were converted into percentage of activation using the non-stimulated control as 0% and AngII maximal response as 100%. Sigmoidal concentration-response curves were generated with those normalized values using a 4-parameter logistic equation (IDBS ActivityBase software), to determine EC50 of the different compounds. In the case of antagonist response analysis, BRET signal values were converted into percentage of inhibition using the fixed dose of AngII (corresponding to the EC50) as 0% and non-stimulated control as 100%. Sigmoidal concentration-response curves were generated with those normalized values using a 4-parameter logistic equation (IDBS ActivityBase software), to determine IC50 of the different compounds.

[4] = DiscoveRx β-arrestin2 recruitment
[5] = DiscoveRx β-arrestin2 recruitment, maximal response

| SMILES | DiscoveRx β-arrestin2 Ymax (%) [1, 4] [%] | EC50 [1, 4] [µM] | BRET β-Arrestin2 High AT1R Expression Ymax (%) [2] [%] | EC50 [2] [µM] | EC50 [3] [µM] | DiscoveRx β-arrestin2 Ymax (%) [1, 5] [%] | EC50 [1] [µM] |
| --- | --- | --- | --- | --- | --- | --- | --- |
| CCCCC(=O)N(Cc1ccc(-c2cc(-c3ccccc3)ccc2-c2nn[nH]n2)nc1)[C@H](C(=O)O)C(C)C [Example 430] | 55.2 | 0.0332 | 78.9 | 0.0704 | 0.275 |  |  |
| CCCCc1nc(Cl)c(C(=O)N(C)C)n1Cc1ccc(-c2cc(-c3ccccc3)ccc2-c2nn[nH]n2)cc1 [Example 381, 1-((6′-(2H-tetrazol-5-yl)-[1,1′:3′,1″-terphenyl]-4-yl)methyl)-2-butyl-4-chloro-N,N-dimethyl-1H-imidazole-5-carboxamide] |  | 0.344 | 73.9 | 0.828 | 2.11 | 37.4 |  |
| CCCCc1ncc(C(=O)NC(C)(C)COC)n1Cc1ccc(-c2cc(-c3ccccc3)ccc2-c2nn[nH]n2)cc1 [Example 361] |  | 0.0978 | 61.3 | 0.128 | 0.296 | 29.3 |  |
| CCCCc1ncc(C(=O)NC2CCCCC2)n1Cc1ccc(-c2cc(-c3ccccc3)ccc2-c2nn[nH]n2)cc1 [Example 354] |  | 0.0599 | 99.5 | 0.0193 | 0.0455 | 48.3 |  |
| CCCCC(=O)N(Cc1ccc(-c2cc(N3CC(C)(C)c4ccccc43)ccc2-c2nn[nH]n2)cc1)[C@H](C(=O)O)C(C)C [Example 450] | 23.1 | 0.479 | 77.6 | 0.307 | 5.26 |  | > 100 |
| CCCCc1ncc(C(=O)NCCO)n1Cc1ccc(-c2cc(-c3ccccc3)ccc2C(=O)O)cc1 [Example 414] |  | 0.166 | 36.4 | 0.505 | 0.46 | 21.5 |  |
| CCCCc1ncc(C(=O)NC(C)(C)C)n1Cc1ccc(-c2cc(-c3ccccc3)ccc2-c2nn[nH]n2)cc1 [Example 352] |  | 0.234 | 62.2 | 0.29 | 1.18 | 35.7 |  |
| CCCCc1nc(Cl)c(C(=O)O)n1Cc1ccc(-c2cc(-c3cnn(C)c3)ccc2-c2nn[nH]n2)cc1 [Example 389] |  | 0.0918 | 35.3 | 0.189 | 2.02 | 26.7 |  |
| CCCCc1ncc(C(=O)NC2COC2)n1Cc1ccc(-c2cc(-c3ccccc3)ccc2-c2nn[nH]n2)cc1 [Example 358] |  | 0.0101 | 88.8 | 0.0214 | 0.0447 | 40.2 |  |
| CCOc1nc2cccc(C(=O)O)c2n1Cc1ccc(-c2cc(N3CCCC(F)(F)C3)ccc2C(=O)O)cc1 [Example 315] |  | 0.242 | 29.1 | 1.84 | > 100 | 21.5 |  |
| CCOc1nc2cccc(C(=O)O)c2n1Cc1ccc(-c2cc(-c3cccnc3OC)ccc2-c2noc(=O)[nH]2)cc1 [Example 329] |  | 0.0071 | 91.4 | 0.0028 | 0.0315 | 77.6 |  |
| CCOc1nc2cccc(C(=O)OC)c2n1Cc1ccc(-c2cc(-c3ccccc3)ccc2-c2noc(=O)[nH]2)cc1 [Example 316, methyl 2-ethoxy-1-((6′-(5-oxo-4,5-dihydro-1,2,4-oxadiazol-3-yl)-[1,1′:3′,1″-terphenyl]-4-yl)methyl)-1H-benzo[d]imidazole-7-carboxylate] |  | 0.053 | 97.5 | 0.0462 | > 100 | 51.6 |  |
| CCCCc1ncc(C(=O)O)n1Cc1ccc(-c2cc(-c3ccccc3)ccc2-c2nn[nH]n2)cc1 [Example 345, 1-((6′-(2H-tetrazol-5-yl)-[1,1′:3′,1″-terphenyl]-4-yl)methyl)-2-butyl-1H-imidazole-5-carboxylic acid, TFA salt] |  | 0.0181 | 92.0 | 0.0179 | 0.0125 | 44.8 |  |
| CCCc1nc(C(C)(C)O)c(C(=O)OCC)n1Cc1ccc(-c2cc(-c3ccccc3)ccc2-c2nn[nH]n2)cc1 [Example 401, ethyl 1-((6′-(2H-tetrazol-5-yl)-[1,1′:3′,1″-terphenyl]-4-yl)methyl)-4-(2-hydroxypropan-2-yl)-2-propyl-1H-imidazole-5-carboxylate] |  | 0.544 | 74.5 | 0.256 | 2.24 | 43.7 |  |
| CCCCC(=O)N(Cc1ccc(-c2cc(Oc3cccnc3)ccc2-c2nn[nH]n2)cc1)[C@H](C(=O)O)C(C)C [Example 436] | 31.2 | 0.993 | 58.0 | 13.6 | > 100 |  |  |
| CCCCc1ncc(C(=O)Nc2nc(C)cs2)n1Cc1ccc(-c2cc(-c3ccccc3)ccc2-c2nn[nH]n2)cc1 [Example 349] |  | 0.0692 | 67.6 | 0.117 | 0.174 | 24.8 |  |
